In data set [1] the test system is rat p38α mRNA. In words: Rat p38α mRNA levels in NR-8383 cells, quantitative real-time PCR. Format: cell-based. The note with it: 300 nM oligonucleotide with FuGENE 6, 24 hours, mRNA by quantitative real-time PCR, average of two experiments. The source says: (§1) Quantitation of p38α mRNA levels was accomplished by real-time quantitative PCR using the ABI PRISM™ 7600, 7700, or 7900 Sequence Detection System (PE-Applied Biosystems, Foster City, Calif.) according to manufacturer's instructions. This is a closed-tube, non-gel-based, fluorescence detection system which allows high-throughput quantitation of polymerase chain reaction (PCR) products in real-time. As opposed to standard PCR in which amplification products are quantitated after the PCR is completed, products in real-time quantitative PCR are quantitated as they accumulate. This is accomplished by including in the PCR reaction an oligonucleotide probe that anneals specifically between the forward and reverse PCR primers, and contains two fluorescent dyes. A reporter dye (e.g., FAM or JOE, obtained from either PE-Applied Biosystems, Foster City, Calif., Operon Technologies Inc., Alameda, Calif. or Integrated DNA Technologies Inc., Coralville, Iowa) is attached to the 5′ end of the probe and a quencher dye (e.g., TAMRA, obtained from either PE-Applied Biosystems, Foster City, Calif., Operon Technologies Inc., Alameda, Calif. or Integrated DNA Technologies Inc., Coralville, Iowa) is attached to the 3′ end of the probe. When the probe and dyes are intact, reporter dye emission is quenched by the proximity of the 3′ quencher dye. During amplification, annealing of the probe to the target sequence creates a substrate that can be cleaved by the 5′-exonuclease activity of Taq polymerase. […] With each cycle, additional reporter dye molecules are cleaved from their respective probes, and the fluorescence intensity is monitored at regular intervals by laser optics built into the ABI PRISM™ Sequence Detection System. In each assay, a series of parallel reactions containing serial dilutions of mRNA from untreated control samples generates a standard curve that is used to quantitate the percent inhibition after antisense oligonucleotide treatment of test samples.
(§2) Prior to quantitative PCR analysis, primer-probe sets specific to the target gene being measured are evaluated for their ability to be “multiplexed” with a GAPDH amplification reaction. In multiplexing, both the target gene and the internal standard gene GAPDH are amplified concurrently in a single sample. In this analysis, mRNA isolated from untreated cells is serially diluted. Each dilution is amplified in the presence of primer-probe sets specific for GAPDH only, target gene only (“single-plexing”), or both (multiplexing). Following PCR amplification, standard curves of GAPDH and target mRNA signal as a function of dilution are generated from both the single-plexed and multiplexed samples. If both the slope and correlation coefficient of the GAPDH and target signals generated from the multiplexed samples fall within 10% of their corresponding values generated from the single-plexed samples, the primer-probe set specific for that target is deemed multiplexable. Other methods of PCR are also known in the art.
(§3) PCR reagents were obtained from Invitrogen Corporation, (Carlsbad, Calif.). […] The RT reaction was carried out by incubation for 30 minutes at 48° C. Following a 10 minute incubation at 95° C. to activate the PLATINUM® Taq, 40 cycles of a two-step PCR protocol were carried out: 95° C. for 15 seconds (denaturation) followed by 60° C. for 1.5 minutes (annealing/extension).
(§4) Gene target quantities obtained by real time RT-PCR are normalized using either the expression level of GAPDH, a gene whose expression is constant, or by quantifying total RNA using RiboGreen™ (Molecular Probes, Inc. Eugene, Oreg.). GAPDH expression is quantified by real time RT-PCR, by being run simultaneously with the target, multiplexing, or separately. Total RNA is quantified using RiboGreen™ RNA quantification reagent (Molecular Probes, Inc. Eugene, Oreg.). Methods of RNA quantification by RiboGreen™ are taught in Jones, L. J., et al, (Analytical Biochemistry, 1998, 265, 368-374). […]

The subject of data set [2] is mouse p38α mRNA. In words: Mouse p38α mRNA levels in bEND.3 cells, quantitative real-time PCR. It counts as cell-based. More on the design: % Inhib. mouse p38α: concentration or dose not given beside the values. The note with it: bEND.3 cells, mRNA by quantitative real-time PCR, average of two experiments.
Source text: as §1, §2, §3, §4

e = 2'-O-(2-methoxyethyl) (MOE); d = 2'-deoxy (DNA)

Take “320128 (antisense TCAAAGGACTGGTCATAAGG; sugars from the 5' end e5 d10 e5, all phosphorothioate, methylation of C not given here) [compound 320128]”: in data set [1], the “% Inhib. rat p38α” value stood at 37%. Besides, the “% Inhib. mouse p38α” value in data set [2] was found to be 79%.
On to “320129 (antisense CATTTCTTCTTGGTCAAGGG; sugars from the 5' end e5 d10 e5, all phosphorothioate, methylation of C not given here) [compound 320129]”, for which the “% Inhib. rat p38α” value in data set [1] is 65%. The “% Inhib. mouse p38α” value in data set [2] was 69%.
With “320130 (antisense AGGACTCCATTTCTTCTTGG; sugars from the 5' end e5 d10 e5, all phosphorothioate, methylation of C not given here) [compound 320130]”, the “% Inhib. rat p38α” value in data set [1] was 61%. Also, in data set [2], the “% Inhib. mouse p38α” value worked out at 81%.
In the same order, the values of “320131 (antisense CTTCCCCTCACAGTGAAGTG; sugars from the 5' end e5 d10 e5, all phosphorothioate, methylation of C not given here) [compound 320131]” are 39% and 92%.
Take “320132 (antisense TATTTGGAGAGTTCCCATGA; sugars from the 5' end e5 d10 e5, all phosphorothioate, methylation of C not given here) [compound 320132]”: the “% Inhib. rat p38α” value in data set [1] was 56%. Further, the “% Inhib. mouse p38α” value in data set [2] was 85%.
For “320133 (antisense ACTTGAATGGTATTTGGAGA; sugars from the 5' end e5 d10 e5, all phosphorothioate, methylation of C not given here) [compound 320133]”, the “% Inhib. rat p38α” value in data set [1] stood at 61%. In addition, the “% Inhib. mouse p38α” value in data set [2] was found to be 52%.
“320134 (antisense AACAAGAGGCACTTGAATGG; sugars from the 5' end e5 d10 e5, all phosphorothioate, methylation of C not given here) [compound 320134]”: the “% Inhib. rat p38α” value in data set [1] came out at 74%. Further, in data set [2], the “% Inhib. mouse p38α” value worked out at 85%.
As to “320135 (antisense ACCCCCTTCCACCATGAAGG; sugars from the 5' end e5 d10 e5, all phosphorothioate, methylation of C not given here) [compound 320135]”, in data set [1], the “% Inhib. rat p38α” value was determined as 47%. The “% Inhib. mouse p38α” value in data set [2] is reported as 95%.
On to “320136 (antisense AGCAGGCAGACTGCCAAGGA; sugars from the 5' end e5 d10 e5, all phosphorothioate, methylation of C not given here) [compound 320136]”, for which the “% Inhib. rat p38α” value in data set [1] amounted to 34%. Also, the “% Inhib. mouse p38α” value in data set [2] worked out at 83%.
Turning to “320137 (antisense CACACACATCCCTAAGGAGA; sugars from the 5' end e5 d10 e5, all phosphorothioate, methylation of C not given here) [compound 320137]”, the “% Inhib. rat p38α” value in data set [1] stood at 44%. The “% Inhib. mouse p38α” value in data set [2] is 80%.
Take “320138 (antisense TAAAGGCAGGGCCACAGGAG; sugars from the 5' end e5 d10 e5, all phosphorothioate, methylation of C not given here) [compound 320138]”: in data set [1], the “% Inhib. rat p38α” value was found to be 46%. In addition, the “% Inhib. mouse p38α” value in data set [2] came to 87%.
Turning to “320139 (antisense GCAGCCTCTCTCTGTCACTG; sugars from the 5' end e5 d10 e5, all phosphorothioate, methylation of C not given here) [compound 320139]”, in data set [1], the “% Inhib. rat p38α” value is 61%. In addition, the “% Inhib. mouse p38α” value in data set [2] turned out to be 87%.
With “320140 (antisense GGGATAGCCTCAGACCTGAA; sugars from the 5' end e5 d10 e5, all phosphorothioate, methylation of C not given here) [compound 320140]”, in data set [1], the “% Inhib. rat p38α” value is 37%. Further, the “% Inhib. mouse p38α” value in data set [2] is 61%.
On the same counts, the results for “320141 (antisense GCATGGCTGAGGGATAGCCT; sugars from the 5' end e5 d10 e5, all phosphorothioate, methylation of C not given here) [compound 320141]” are 73% and 83%.
Turning to “320142 (antisense GAGCCAGTTGGTTCTCTTGG; sugars from the 5' end e5 d10 e5, all phosphorothioate, methylation of C not given here) [compound 320142]”, in data set [1], the “% Inhib. rat p38α” value is recorded as 53%. Moreover, the “% Inhib. mouse p38α” value in data set [2] was determined as 85%.
As to “320143 (antisense AGGCACAAACAGACTGACAG; sugars from the 5' end e5 d10 e5, all phosphorothioate, methylation of C not given here) [compound 320143]”, in data set [1], the “% Inhib. rat p38α” value came out at 54%. Further, the “% Inhib. mouse p38α” value in data set [2] was determined as 88%.
“320144 (antisense CCTTTTAAGGCACAAACAGA; sugars from the 5' end e5 d10 e5, all phosphorothioate, methylation of C not given here) [compound 320144]”: the “% Inhib. rat p38α” value in data set [1] is reported as 39%. In addition, in data set [2], the “% Inhib. mouse p38α” value was 83%.
Regarding “320145 (antisense GACCTCTGCACTGAGGTGAA; sugars from the 5' end e5 d10 e5, all phosphorothioate, methylation of C not given here) [compound 320145]”, the “% Inhib. rat p38α” value in data set [1] came to 44%. Further, in data set [2], the “% Inhib. mouse p38α” value was found to be 52%.
With “320146 (antisense GGCACTGGAGACCTCTGCAC; sugars from the 5' end e5 d10 e5, all phosphorothioate, methylation of C not given here) [compound 320146]”, in data set [1], the “% Inhib. rat p38α” value stood at 57%. Also, the “% Inhib. mouse p38α” value in data set [2] is 74%.
For “320147 (antisense AGAGCACAGCATGCAAACAC; sugars from the 5' end e5 d10 e5, all phosphorothioate, methylation of C not given here) [compound 320147]”, in data set [1], the “% Inhib. rat p38α” value worked out at 43%. Besides, the “% Inhib. mouse p38α” value in data set [2] is listed as 66%.
In the same order, the values of “320148 (antisense CCAGGGCTTCCAGAAGACAG; sugars from the 5' end e5 d10 e5, all phosphorothioate, methylation of C not given here) [compound 320148]” are 33% and 78%.
“320149 (antisense AAGGAGCTCCTGGCTTCAGG; sugars from the 5' end e5 d10 e5, all phosphorothioate, methylation of C not given here) [compound 320149]”: the “% Inhib. rat p38α” value in data set [1] is recorded as 25%. Besides, the “% Inhib. mouse p38α” value in data set [2] came out at 74%.
In the same order, the values of “320150 (antisense GGATTCCTACAACATACAAA; sugars from the 5' end e5 d10 e5, all phosphorothioate, methylation of C not given here) [compound 320150]” are 62% and 82%.

The values above are taken from patent US20040171566A1, “Antisense modulation of p38 mitogen activated protein kinase expression” (priority 1999, published 2004).
